From patent US20150105349A1, “(R)-(-)-1,2-propanediol compositions and methods” (priority 2013, published 2015)

Experiments:
[1] = system: itchy scalp, seborrheic dermatitis; assay: topical application to itchy scalp in seborrheic dermatitis, one subject; format: in vivo, human; conditions: 10 mg/mL in 12% (S)-1,2-propanediol, 37% (R)-1,2-propanediol, 1% ethanol, 50% water
Experimental: A subject with severe seborrheic dermatitis complained of an itchy scalp which was not resolved with anti-dandruff shampoos. […] The delivery was made using a 20 mL reservoir bottle capped with a Yorker spout. They remarked that routine application of the solution on an “as needed basis” stopped the itch for 6 to 8 hours and repeat applications for one week allowed their scalp to feel refreshed and normal. They proposed to pay for a continued supply of the solution.

[2] = biological target: T1, cloned hTRPM8 channel (human TRPM8 gene, expressed in CHO cells) (Homo sapiens, UniProt Q7Z2W7); assay: agonist activity on cloned hTRPM8 channel, Fluo-8 calcium kit, FLIPR; format: cell-based; conditions: TRPM8 receptor assay
T1 construct: host or cells: CHO cells
Experimental: The in vitro effects of test articles were evaluated on cloned hTRPM8 channel (encoded by the human TRPM8 gene, expressed in CHO cells) using a Fluo-8 calcium kit and a Fluorescence Imaging Plate Reader (FLIPR^TETRA™) instrument. […] The total number of carbons in these trialkylphosphine oxides ranged from 12 to 15.
To further examine solvent-receptor interactions, stock solutions of 1-7 [1-(Diisopropyl-phosphinoyl)-heptane] were prepared in dimethyl sulfoxide (DMSO) or DMSO containing 10% or 30% by volume of the three isomers of 1,2-propanediol, (R/S-PD, R-PD, and S-PD) and stored frozen. Six dose levels were tested ranging from 0.003 to 3 μM. Ten μl of the test article solution were added to 40 μl of cells in HBPS in glass-lined 384-well compound plates, and placed into the FLIPR instrument for the fluorescence readout (Molecular Devices Corporation, Union City, Calif.).

[3] = system: periorbital skin and skin above the cheekbone; assay: cosmetic wipe over periorbital skin and skin above the cheekbone, six female subjects; format: in vivo, human; conditions: 10 mg/mL in water (50%), 10% (S)-, 40% (R)-1,2-propanediol
Experimental: Six female subjects working at a cosmetics company volunteered to try topical applications of 1-7 and/or 1-8, formulated at 10 mg/mL in water (50%) and 10% (S)-1,2-propanediol, 40% (R)-1,2-propanediol wt/wt. The liquid was put on a cotton square and wiped over the periorbital skin and the skin above the cheekbone. All the subjects remarked on a refreshing coolness on the skin at the sites of application within 2 min after application. There was a “wow” effect, that was considered pleasant and stimulating. […] Four of the six subjects said they felt more “awake and energetic.”

[4] = system: philtrum skin; assay: philtrum skin cooling bioassay (subjective coolness rating 0-3); format: in vivo, human; conditions: 49% distilled water, 1% ethanol
Excerpt: The term “alcoholic solvent” refers to a chemical with one to four carbons with at least one hydroxyl group attached to a carbon atom. A reliable place for topical application is the skin above the upper lip (above the vermilion border of the lips), on the philtrum, lateral to the philtrum until the nasolabial folds, and on the lower nostrils (subnasale). This part of the face is known to be densely innervated with cold receptors, second only to the surfaces of the eyeball and anogenitalia. Tingling, cool and cold sensations from the skin may be experienced and rated for time of onset and intensity.
The intervals for recording sensations are 5 to 10 minutes, until two successive zeros are obtained. The results (shown in the Figures) are averaged values of 4 to 6 separate trials in the same individual. The data are plotted using SigmaPlot (Systat Software, Point Richmond, Calif.) and a smoothing function with a negative exponential was used for analysis and statistical fit of the results. The onset of drug action is taken as the time to reach 2 units of coolness intensity, and offset of drug action is the time when coolness intensity drops below 2, after previously surpassing 2 units. […] The duration of cooling action is defined as the offset time minus the onset time and the primary index of effect. As described in Examples, the test compounds were tested at 2 to 10 mg/mL of vehicle.
For assays on the skin, the cooling agent(s) was dissolved in the alcoholic solvent to yield a 2, 2.5, 3, 5 or 10 mg/mL solution. Using a cotton-tipped applicator (e.g. Q-tips®) 0.10 to 0.25 mL of the test solution was applied to the skin above the upper lip, on the philtrum, and lateral to the philtrum up to the nasolabial folds, and the onset and duration of cooling sensations noted. […] The interval for recording sensations was at 5 to 10 minute intervals, until at least two successive zeros were obtained. The results were averaged values of 3 to 6 separate trials in the same individual. The “onset” is the time taken to reach a coolness intensity value of 2. […] The “off-set” is when the coolness intensity drops below 2, and the duration is the time of off-set minus the time of onset. The area under the curve (AUC) gives an estimate of the intensity and duration of drug action and can be obtained from the plotted data using SigmaPlot (Systat Software, Point Richmond, Calif.). The AUC unit is the product of cooling intensity x min.

T1 sequence (Q7Z2W7 whole entry): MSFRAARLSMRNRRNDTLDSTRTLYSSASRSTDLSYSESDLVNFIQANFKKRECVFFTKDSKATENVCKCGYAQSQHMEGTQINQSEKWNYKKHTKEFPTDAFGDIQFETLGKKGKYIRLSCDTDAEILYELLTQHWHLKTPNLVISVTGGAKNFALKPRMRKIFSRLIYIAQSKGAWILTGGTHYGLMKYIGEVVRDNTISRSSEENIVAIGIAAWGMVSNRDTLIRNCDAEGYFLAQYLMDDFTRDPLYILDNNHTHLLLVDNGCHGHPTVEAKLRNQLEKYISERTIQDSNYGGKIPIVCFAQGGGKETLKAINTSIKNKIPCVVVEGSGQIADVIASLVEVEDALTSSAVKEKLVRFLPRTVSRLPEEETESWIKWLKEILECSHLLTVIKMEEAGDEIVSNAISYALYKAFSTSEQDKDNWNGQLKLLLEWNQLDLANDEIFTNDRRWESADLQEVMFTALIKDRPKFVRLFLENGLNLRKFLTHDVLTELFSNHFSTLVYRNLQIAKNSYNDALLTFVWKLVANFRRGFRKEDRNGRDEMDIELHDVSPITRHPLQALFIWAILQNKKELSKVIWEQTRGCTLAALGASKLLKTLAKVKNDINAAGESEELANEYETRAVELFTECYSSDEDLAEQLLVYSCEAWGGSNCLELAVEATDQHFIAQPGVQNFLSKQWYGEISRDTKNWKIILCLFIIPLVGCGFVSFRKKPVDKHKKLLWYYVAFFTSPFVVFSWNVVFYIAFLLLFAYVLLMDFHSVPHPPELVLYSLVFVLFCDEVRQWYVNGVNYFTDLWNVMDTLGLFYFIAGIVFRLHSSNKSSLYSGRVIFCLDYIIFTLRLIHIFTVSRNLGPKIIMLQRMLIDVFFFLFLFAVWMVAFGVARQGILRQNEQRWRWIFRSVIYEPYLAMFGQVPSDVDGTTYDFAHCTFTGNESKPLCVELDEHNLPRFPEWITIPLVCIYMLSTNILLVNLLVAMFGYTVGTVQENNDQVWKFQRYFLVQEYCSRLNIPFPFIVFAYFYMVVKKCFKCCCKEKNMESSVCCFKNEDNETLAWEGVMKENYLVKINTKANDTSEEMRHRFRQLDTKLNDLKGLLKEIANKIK

For `CCCCCCCCP(=O)(C(C)C)C(C)C` [1-8], the “duration for which itch was stopped” value [1] was 6 to 8 h, the “Potency Relative to I-menthol” value [2] was 5.4 and the EC50 ([2]; read-out: EC50 μM (95% C, L.)) was 0.7 µM. The “irritation or redness on the skin after applications” value [3] was “no irritation or redness”, the “time facial skin felt cool and dry after application” value ([3]; all subjects) was “at least one hour” and the “Ratio of AUC 75/25% R/S to 25/75% R/S (fold increase in cooling activity)” value [4] was 1.5.
